{"source": "patent US20220117920A1", "about": "“N-Aryl Benzenesulfonamides as Protonophores for the Treatment of Cancers, Metabolic Diseases and Traumatic Brain Injury” (University of Kentucky Research Foundation, priority 2019, published 2022)", "key": {"AMPK": {"test_system": "AMPK", "experiment": "Western blot of AMPK (T172) and ACC (S79) phosphorylation in CRC cells", "type": "cell-based, human", "conditions": "for AMPK activation: concentration not given; for ACC (S79 phosphorylation) / AMPK activity (T172 phosphorylation): 3 μM", "method": "(§1) Biochemistry. Western blotting: Cells were lysed in the appropriate volume of lysis buffer: 50 mM HEPES, 100 mM NaCl, 2 mM EDTA, 1% (v/v) glycerol, 50 mM NaF, 1 mM Na3VO4, 1% (v/v) Triton X-100, with protease inhibitors. The following antibodies were used: AMPK (Cell Signaling, 2532, Cell Signaling Technologies, Danver, Mass., USA), pAMPK (Cell Signaling, 2535), ACC (Cell Signaling, 3676), pACC (Cell Signaling, 11818), Actin (Sigma, A1978). Antibodies for Axin 2, c-Myc and Cyclin D1 have been described previously. ATP analysis: Cells growing in 12-well plates were treated with DMSO or inhibitors in DMSO solution and lysed by adding 1 mL boiling doubly distilled water. Supernatants were analyzed by luminescence using ATP Determination Kit (Invitrogen, A22066; Thermo Fisher Scientific, Waltham, Mass., USA)."}, "Wnt signaling [1]": {"test_system": "Wnt signaling", "experiment": "Wnt reporter assay, stable HEK293T cell line containing TOPFlash reporter, LiCl-activated", "type": "cell-based, human", "source_text": "(§2) To identify novel Wnt regulators by high throughput screening, a stable HEK293T cell line containing the TOPFlash reporter was established. To identify Wnt inhibitors that targeted molecular events downstream of β-catenin, we treated these cells with lithium chloride to inhibit GSK3 and to stabilize β-catenin. […] We also validated the results by transient transfection of Super 8× TOPFlash or 8× FOPFlash into HEK293T cells. […] Since the results from the stable and transient transfection are compatible, we used stable cell lines for all of the other experiments.\n(§3) Reporter assay. Wnt reporter assay and cell staining assay have been described previously. We subcloned Super 8×TOPFlash (provided by Professor Randall Moon, University of Washington) into the pGL4.83 [hRlucP/Puro] Vector and transfected it into HEK293T cells. A stable HEK293T cell line containing the TOPFlash reporter was established using puromycin selection. To screen Wnt inhibitors that block the downstream signaling transduction pathway of β-catenin, we treated the reporter cells with 25 mM LiCl to stabilize β-catenin and activate Wnt signaling. The potential Wnt inhibitors identified from screening were validated by transfecting TOPFlash or FOPFlash plus control renilla reporters into HEK293T cells, and then treating the cells with DMSO or testing compounds in DMSO solution. The Wnt signaling was activated by LiCl or Wnt3A treatment."}, "LS174T cells": {"test_system": "LS174T cells", "experiment": "ATP analysis (luminescence) in LS174T cells", "type": "cell-based, human", "conditions": "10 mM", "method": "as §1"}, "[2]": {"test_system": "mitochondrial ATP production", "experiment": "Agilent Seahorse XF Real-Time ATP Rate Assay", "type": "cell-based, human", "description": "Seahorse assay. Approximately 3×10^4 cells were seeded in XF96 Cell Culture microplate (80 μL of 3.75×10^5 cells/mL) for all experiments. On the next day, cell culture media were replaced with either Seahorse XF modified media with 25 mM glucose and 1 mM pyruvate. After media exchange, cells were treated with 1 μM of oligomycin A, 1.0 μM FCCP and mixture of 1.0 μM of rotenone and 1.0 μM of antimycin A in standard mitochondrial stress test conditions. To determine the uncoupler effects, FCCP was replaced with an equal volume of DMSO, or a compound to be tested in DMSO solution. ATP production rate was analyzed using Agilent Seahorse XF Real-Time ATP Rate Assay."}, "DLD-1 cells": {"test_system": "DLD-1 cells", "experiment": "Seahorse uncoupling assay (OCR) in DLD-1 cells", "type": "cell-based, human", "conditions": "for oxidative phosphorylation: data not shown"}, "[3]": {"test_system": "purified mitochondria from mouse liver", "experiment": "Uncoupling assay (OCR) using purified mitochondria from mouse livers", "type": "biochemical", "description": "All the steps were carried out at 4° C. or on ice. After mice were euthanized with CO2 followed by rapid decapitation, whole liver was quickly dissected out on a cold block and homogenized using a Teflon-glass dounce homogenizer containing isolation buffer (215 mM mannitol, 75 mM sucrose, 0.1% BSA, 20 mM HEPES, 1 mM EGTA, adjusted to pH 7.2 with KOH). The homogenate was transferred to a 2 mL-microcentrifuge tube and spun at 1,300×g for 3 min. The supernatant was transferred to a fresh 2 mL-microcentrifuge tube and spun at 13,000×g for 10 min. The supernatant was discarded, and the crude mitochondrial pellet was resuspended in a 1.5 mL-microcentrifuge tubes and pelleted again at 10,000×g for 10 min. The supernatant was discarded, and the mitochondrial pellets were resuspended in isolation buffer to obtain an approximate concentration ≥10 mg/mL of mitochondria. The absolute protein concentration was determined using a bicinchoninic acid (BCA) protein assay kit (Pierce, Cat #23,227) by recording absorbance at 560 nm on a Biotek Synergy HT plate reader (Winooski, Vt., USA).\nMitochondrial Bioenergetics Measurements. Mitochondrial bioenergetic measurements were carried out using a Seahorse XFe96 Extracellular Flux Analyzer (Agilent Technologies, Santa Clara, Calif., USA) to measure oxygen consumption rate (OCR) during various states of respiration. The OCR were measured in the presence of different substrates, inhibitors and uncouplers of the electron transport chain using previous methods with slight modifications. The stocks used for the assays were 500 mM pyruvate, 250 mM malate, and 30 mM adenosine diphosphate (ADP), and 1 M succinate (pH for all was adjusted to 7.2). […] Stock solutions of FH535, Y3, FH535-M, and Y3-M were prepared at 5 mM in 100% DMSO. As per the instructions from XFe96 Extracellular Flux kit, the sensor cartridge was hydrated with water and kept at 37° C. overnight before the experiment. One hour before the assay was conducted, water was removed from assay plates and XF calibrant was added before re-incubation. The injection ports A to D of the sensor cartridge were loaded with 25 μL of different combinations of the above substrates/inhibitors/uncouplers as follows. Before loading, the stocks were diluted appropriately in the respiration buffer (RB) (125 mM KCl, 0.1% BSA, 20 mM HEPES, 2 mM MgCl2, and 2.5 mM KH2PO4; pH 7.2) to get the final concentrations in the respiration chamber of 5 μM pyruvate, 2.5 μM malate, 10 μM of succinate and 1 μM ADP (via Port A), 1 μM oligomycin A (via Port B), 4 μM FCCP or 5 μM/1 μM FH535 or 5 μM/1 μM Y3 or 5 μM/1 μM FH535-M or 5 μM/1 μM Y3-M (via Port C) and 0.1 μM antimycin A (via Port D) starting with the initial volume of 175 μL RB in the chamber and diluting it to 9×, 10×, 11× and 12× with every injection through ports A to D, respectively. Once loaded, the sensor cartridge was placed into the Seahorse XFe96 Flux Analyzer for automated calibration. Seahorse Standard XFe96 assay plates were used for loading mitochondria. Initially total mitochondria were diluted to 6 μg/30 μL in RB and 30 μL was loaded in each well resulting in 6 μg mitochondria/well. The assay plates were centrifuged at 3,000 rpm for 4 min at 4° C. to adhere liver mitochondria at the bottom of the wells. After centrifugation, 145 μL RB (pre-incubated to 37° C.) was added without disturbing the mitochondrial layer to obtain a final volume of 175 μL per well. […]"}, "[4]": {"test_system": "LS174T and DLD-1 CRC cells", "experiment": "Cell proliferation assay in colon cancer cells", "type": "cell-based, human", "method": "Cell culture. LS174T colon cancer cells were cultured in EMEM (ATCC, 30-2003) containing 10% (v/v) Fetal Bovine Serum (Sigma F0926, Sigma Aldrich Corp., St. Louis, Mo., USA). The DLD-1, SW480 and SW620 colon cancer cells were cultured in DMEM (Sigma D6429) containing 10% (v/v) Fetal Bovine Serum (Sigma, F0926). For proliferation assays, cells (3.5×10^4 cells per well) were split into 12-well plates. After 24 h, 1 μL of each compound in DMSO solution were added to each well. DMSO was used as a control. Each experiment was done in triplicate. Cell viability and number were analyzed using the Vi-Cell XR Cell Viability Analyzer (Beckman Coulter, Indianapolis, Ind., USA)."}, "Wnt target genes": {"test_system": "Wnt target genes", "experiment": "Western blot of Wnt signaling components and downstream targets in CRC cell lines", "type": "cell-based, human", "conditions": "three CRC cell lines", "method": "as §1"}, "Wnt signaling [5]": {"test_system": "Wnt signaling", "experiment": "Transient transfection of Super 8× TOPFlash or 8× FOPFlash into HEK293T cells", "type": "cell-based, human", "source_text": "as §2\nas §3, with “The Wnt signaling was activated by LiCl or Wnt3A treatment.” left out"}, "[6]": {"test_system": "mitochondrial membrane potential", "experiment": "Mitochondria membrane potential assay (TMRM staining)", "type": "cell-based, human", "conditions": "FTU-11 at 3 μM", "method": "Mitochondria Membrane potential assay: DLD-1 and LS174T cells were plated onto 24-well plates and maintained in DMEM (DLD-1) and RPMI1640 (LS174T) with 10% (v/v) (DLD-1) and 5% (v/v) (LS174T) serum for one day. The cells were treated with DMSO or a testing compound in DMSO solution for 2 h, followed by staining with 100 nM tetramethylrhodamine methyl ester perchlorate (TMRM) (Cayman Chemical Company, MI, USA) for 15 min. Cells were rinsed once with PBS and then observed under fluorescence microscopy at 568 nm."}}, "data": [{"molecule": "O=CC[C@@H](O)[C@H](O)[C@H](O)CO", "note": "[2-DG, 2-deoxy-D-glucose]", "values": [{"measurement": "AMPK activation", "setting": "AMPK", "result": "activated AMPK"}, {"measurement": "inhibition of Wnt signaling", "setting": "Wnt signaling [1]; concentration not given", "result": "inhibited Wnt signaling"}, {"measurement": "ATP levels", "setting": "LS174T cells", "result": "reduced ATP levels"}]}, {"molecule": "N#Cc1c(O)c2c(-c3ccc(-c4ccccc4O)cc3)csc2[nH]c1=O", "note": "[A769662, 4-hydroxy-3-(2′-hydroxy-[1,1′-biphenyl]-4-yl)-6-oxo-6,7-dihydrothieno[2,3-b]pyridine-5-carbonitrile, reference compound]", "values": [{"measurement": "AMPK activity (ACC S79 phosphorylation)", "setting": "AMPK; without affecting AMPK phosphorylation", "result": "Increased AMPK activity"}, {"measurement": "inhibition of Wnt signaling", "setting": "Wnt signaling [1]; 10 μM", "result": "did not inhibit Wnt signaling"}]}, {"molecule": "c1cc(-c2cnn3cc(-c4ccc(OCCN5CCOCC5)cc4)cnc23)ccn1", "note": "[Compound C, 4-(2-(4-(3-(pyridin-4-yl)pyrazolo[1,5-a]pyrimidin-6-yl)phenoxy)ethyl)morpholine, reference compound]", "values": [{"measurement": "urea-induced AMPK phosphorylation and ACC phosphorylation", "setting": "AMPK; 5 μM", "result": "decreased"}, {"measurement": "rescue of Wnt signaling inhibited by FTU-11 (3 μM) and FDN-4E (3 μM)", "setting": "Wnt signaling [1]; 5 μM", "result": "no effect"}]}, {"molecule": "N#CC(C#N)=NNc1ccc(OC(F)(F)F)cc1", "note": "[FCCP, N-(4-(trifluoromethoxy)phenyl)carbonohydrazonoyl dicyanide, reference compound]", "values": [{"measurement": "AMPK activation", "setting": "AMPK", "result": "strongly activated AMPK"}, {"measurement": "inhibition of Wnt signaling", "setting": "Wnt signaling [1]; concentration not given", "result": "inhibited Wnt signaling"}, {"measurement": "rate of ATP production in mitochondria", "setting": "[2]; 1 μM, control", "result": "decreased the rates of ATP production in mitochondria"}, {"measurement": "uncoupling: OCR inhibited by oligomycin", "setting": "DLD-1 cells; 1 μM, control", "result": "increased OCR inhibited by oligomycin"}, {"measurement": "uncoupling: OCR blocked by oligomycin", "setting": "[3]; control, 1 μM", "result": "rescued"}]}, {"molecule": "O=C(Nc1ccc(C(F)(F)F)cc1)Nc1cc(F)c(F)c(F)c1", "note": "[FDN-4E, 1-(4-(trifluoromethyl)phenyl)-3-(3,4,5-trifluorophenyl)urea]", "values": [{"measurement": "proliferation of colon cancer cells", "setting": "[4]", "result": "inhibited the proliferation of colon cancer cells at sub-micromolar concentrations"}, {"measurement": "ACC (S79 phosphorylation)", "setting": "AMPK", "result": "inhibited ACC"}, {"measurement": "AMPK activity (T172 phosphorylation)", "setting": "AMPK", "result": "increased AMPK activity"}, {"measurement": "inhibition of Wnt signaling", "setting": "Wnt signaling [1]; concentration not given", "result": "inhibited Wnt signaling"}, {"measurement": "Wnt target genes", "setting": "Wnt target genes", "result": "inhibited Wnt target genes"}, {"measurement": "TOPFlash and FOPFlash activity", "setting": "Wnt signaling [5]", "result": "inhibited TOPFlash but not FOPFlash activity"}]}, {"molecule": "Cc1cc([N+](=O)[O-])ccc1N(C)S(=O)(=O)c1cc(Cl)ccc1Cl", "note": "[FH535-M, 2,5-dichloro-N-methyl-N-(2-methyl-4-nitrophenyl)benzenesulfonamide]", "values": [{"measurement": "AMPK activity (T172 phosphorylation)", "setting": "AMPK", "result": "lost activities"}, {"measurement": "inhibition of Wnt signaling", "setting": "Wnt signaling [1]; 3 μM", "result": "lost activities"}, {"measurement": "uncoupling: OCR inhibited by oligomycin", "setting": "DLD-1 cells; testing compound 3 μM", "result": "no longer functioned as a mitochondrial uncoupler"}, {"measurement": "uncoupling: OCR blocked by oligomycin", "setting": "[3]; 5 μM/1 μM", "result": "inactive"}]}, {"molecule": "O=C(Nc1nnc(C(F)(F)F)s1)NC(CC(F)(F)F)(C(F)(F)F)C(F)(F)F", "note": "[FTU-11, 1-(1,1,1,4,4,4-hexafluoro-2-(trifluoromethyl)butan-2-yl)-3-(5-(trifluoromethyl)-1,3,4-thiadiazol-2-yl)urea]", "values": [{"measurement": "proliferation of colon cancer cells", "setting": "[4]", "result": "inhibited the proliferation of colon cancer cells at sub-micromolar concentrations"}, {"measurement": "ACC (S79 phosphorylation)", "setting": "AMPK", "result": "inhibited ACC"}, {"measurement": "AMPK activity (T172 phosphorylation)", "setting": "AMPK", "result": "increased AMPK activity"}, {"measurement": "AMPK activation", "setting": "AMPK", "result": "equal in potency to FDN-4E"}, {"measurement": "mitochondrial membrane potential", "setting": "[6]", "result": "reduced mitochondrial membrane potential"}, {"measurement": "mitochondrial membrane potential", "setting": "[6]; listed as FTC-11", "result": "significantly reduced the membrane potential of mitochondria"}, {"measurement": "concentration at which Wnt signaling was inhibited", "setting": "Wnt signaling [1]; 96-well assay using stable cell line", "result": 0.5, "unit": "mM"}, {"measurement": "rate of ATP production in mitochondria", "setting": "[2]; 3 μM", "result": "decreased the rates of ATP production in mitochondria"}, {"measurement": "Wnt target genes", "setting": "Wnt target genes", "result": "inhibited Wnt target genes"}, {"measurement": "uncoupling: OCR inhibited by oligomycin", "setting": "DLD-1 cells; testing compound 3 μM", "result": "increased OCR inhibited by oligomycin"}, {"measurement": "TOPFlash and FOPFlash activity", "setting": "Wnt signaling [5]", "result": "inhibited TOPFlash but not FOPFlash activity"}]}, {"molecule": "O=C1[C@H](Cc2ccc(O)cc2)N2C(=O)CCN(C(=O)NCc3ccccc3)[C@H]2CN1Cc1cccc2ccccc12", "note": "[ICG-001, (6S,9aS)—N-benzyl-6-(4-hydroxybenzyl)-8-(naphthalen-1-ylmethyl)-4,7-dioxohexahydro-2H-pyrazino[1,2-c]pyrimidine-1(6H)-carboxamide, reference compound]", "values": [{"measurement": "AMPK activation", "setting": "AMPK", "result": "no effect on AMPK"}, {"measurement": "inhibition of Wnt signaling", "setting": "Wnt signaling [1]; concentration not given", "result": "only inhibited Wnt signaling"}]}, {"molecule": "CN(c1ccc([N+](=O)[O-])c2ccccc12)S(=O)(=O)c1cc(Cl)ccc1Cl", "note": "[Y3-M, 2,5-dichloro-N-methyl-N-(4-nitronaphthalen-1-yl)benzenesulfonamide]", "values": [{"measurement": "AMPK activity (T172 phosphorylation)", "setting": "AMPK", "result": "lost activities"}, {"measurement": "inhibition of Wnt signaling", "setting": "Wnt signaling [1]; 3 μM", "result": "lost activities"}, {"measurement": "uncoupling: OCR inhibited by oligomycin", "setting": "DLD-1 cells; testing compound 3 μM", "result": "failed as a mitochondrial uncoupler"}, {"measurement": "uncoupling: OCR blocked by oligomycin", "setting": "[3]; 5 μM/1 μM", "result": "inactive"}]}, {"molecule": "CC[C@H]1/C=C/C=C/C[C@@H](C)[C@H](O)[C@@](C)(O)C(=O)[C@@H](C)[C@H](O)[C@@H](C)C(=O)[C@@H](C)[C@H](O)[C@@H](C)/C=C/C(=O)O[C@@H]2[C@H](C)[C@H](CC1)O[C@]1(CC[C@H](C)[C@H](C[C@@H](C)O)O1)[C@H]2C", "note": "[oligomycin, reference compound]", "values": [{"measurement": "AMPK activation", "setting": "AMPK", "result": "activated AMPK"}, {"measurement": "inhibition of Wnt signaling", "setting": "Wnt signaling [1]; concentration not given", "result": "inhibited Wnt signaling"}, {"measurement": "oxidative phosphorylation", "setting": "DLD-1 cells", "result": "inhibited oxidative phosphorylation"}]}, {"molecule": "C=C(C)[C@H]1Cc2c(ccc3c2O[C@@H]2COc4cc(OC)c(OC)cc4[C@@H]2C3=O)O1", "note": "[rotenone, reference compound]", "values": [{"measurement": "AMPK activation", "setting": "AMPK", "result": "activated AMPK"}, {"measurement": "inhibition of Wnt signaling", "setting": "Wnt signaling [1]; concentration not given", "result": "inhibited Wnt signaling"}, {"measurement": "oxidative phosphorylation", "setting": "DLD-1 cells", "result": "inhibited oxidative phosphorylation"}]}, {"molecule": "antimycin [reference compound]", "values": [{"measurement": "AMPK activation", "setting": "AMPK", "result": "activated AMPK"}, {"measurement": "inhibition of Wnt signaling", "setting": "Wnt signaling [1]; concentration not given", "result": "inhibited Wnt signaling"}, {"measurement": "oxidative phosphorylation", "setting": "DLD-1 cells", "result": "inhibited oxidative phosphorylation"}]}]}
